Tests used:
[1] = system: H460 (NRF2 pathway mutant cell line with high AKR1C3 expression); assay: In vitro cell proliferation assay (CellTiter-Glo), H460; type: cell-based; settings: Homo sapiens, NCI-H460, 72 h; H460 cells, 3 days, CellTiter-Glo, top concentration 10 μM; read-out: H460 Qualified absolute AC50
Summary of the method: (§1)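 Cells seeded day 1 (H460 800/well, Hara 2000/well) in RPMI-1640 with 10% FBS; compounds added day 2 as 8-point 1:5 dilutions from 10 μM top. After 3 days at 37 °C, viability read by CellTiter-Glo luminescence, normalized to DMSO and MG132 (30 μM) controls to derive percentage activity and AC50.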

[2] = system: Hara (NRF2 pathway wild type cell line with low AKR1C3 expression); assay: In vitro cell proliferation assay (CellTiter-Glo), Hara; type: cell-based; settings: 72 h; Hara cells, 3 days, CellTiter-Glo, top concentration 10 μM; read-out: HARA Qualified absolute AC50
Summary of the method: as §1

Human KARS = molecular target: T1, Human KARS (Homo sapiens, UniProt Q15046); assay: KARS AMP Transcreener FP assay; type: biochemical; settings: 50 nM human KARS, 20 μM ATP, 50 μM L-Lysine, 1 μM tRNA, 2 h at RT; read-out: Human KARS Transcreener AMP assay Qualified absolute AC50
T1 construct: Human KARS protein (residues 70-584) was expressed and purified; made in house
T1 sequence (Q15046 70-584): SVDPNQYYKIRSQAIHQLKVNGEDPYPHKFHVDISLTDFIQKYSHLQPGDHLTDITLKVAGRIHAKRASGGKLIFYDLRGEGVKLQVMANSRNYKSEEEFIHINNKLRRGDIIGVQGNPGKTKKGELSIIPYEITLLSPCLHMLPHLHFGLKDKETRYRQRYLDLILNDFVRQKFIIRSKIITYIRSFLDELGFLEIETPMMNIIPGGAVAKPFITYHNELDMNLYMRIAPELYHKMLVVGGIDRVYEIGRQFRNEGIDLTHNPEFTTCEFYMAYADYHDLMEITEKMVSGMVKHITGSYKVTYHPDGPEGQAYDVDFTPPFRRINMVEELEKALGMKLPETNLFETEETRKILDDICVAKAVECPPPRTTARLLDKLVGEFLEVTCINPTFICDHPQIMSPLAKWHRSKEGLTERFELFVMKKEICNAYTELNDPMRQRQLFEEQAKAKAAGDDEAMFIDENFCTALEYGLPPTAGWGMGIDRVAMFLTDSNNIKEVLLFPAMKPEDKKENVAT
From the text: KARS AMP Transcreener FP Assay to Measure Inhibition of KARS Enzymatic Activity
Lysine-tRNA synthetase (KARS) is an enzyme that catalyzes the reaction of ATP, L-lysine, and tRNA(Lys) to form AMP, diphosphate, and L-lysyl-tRNA(Lys).
The Transceener® AMP/GMP (BellBrook Labs, Madison, WI, USA) is a far red, competitive fluorescence polarization (FP) immunoassay based on the detection of AMP, which is one of the products of aminoacylation of tRNA. In this assay, a fluorescently labeled AMP (AMP Alexa Fluor 633) is used as the tracer that can be recognized by a specific antibody. In the absence of AMP, all the tracer molecules are bound to the antibodies leading to large polarization. The AMP product generated by the enzyme reaction will compete with the tracer for binding to the antibody which leads to a decrease in the polarization. As such, the enzyme activity is inversely proportional to FP values.
Human KARS protein (residues 70-584) was expressed and purified using a similar protocol to what is described in literature (Crystal structure of tetrameric form of human lysyl-tRNA synthetase: Implications for multisynthetase complex formation Guo, M., Ignatov, M., Musier-Forsyth, K., Schimmel, P., Yang, X. L. (2008) Proc. Natl. Acad. Sci. Usa 105: 2331-2336).
The KARS enzyme assay was performed in a final volume of 10 μL per well of Corning Costar 384 well plate, flat bottom, black non-treated plate. The final assay concentration was 20 mM HEPES pH 7.5, 1 mM DTT, 50 nM human KARS, 20 μM ATP, 50 μM L-Lysine, 1 μM tRNA and 8 mM MgCl2. Compounds were serial diluted 1:3 in DMSO in a master plate to generate a 10 concentration points dose response with maximum concentration of 10 mM. 50 nL from compound master plate were spotted in each well of a 384 black plate (Corning 3573), and 5 μL of enzyme mixture containing 100 nM KARS diluted in assay buffer (20 mM HEPES pH 7.5 and 1 mM OTT) were added. The reaction was started by adding 5 μL of the substrate mixture containing 40 μM ATP (final 20 μM ATP), 100 μM L-Lysine (final 50 μM), 2 μM tRNA (final 1 μM), 16 mM MgCl2 (final 8 mM MgCl2) diluted in assay buffer (20 mM HEPES pH 7.5 and 1 mM OTT). The mixtures were mixed and incubated for 2 h at RT before the termination of the reaction.
Transcreener® stop and detection buffers were prepared (1× stop buffer [final: 0.5×], 2 nM Tracer [final: 1 nM] and 5 μg/ml anti-AMP antibody [final: 2.5 μg/ml] in deionized water) and 10 μL of the stop and detection mix were added to the reaction wells, mixed for a minute and centrifuged at 1000 rpm for 10 seconds. The plates were read after incubating at RT for 30-60 min using Infinite® M1000 with the following settings: Excitation wavelength: 635 nm; Emission wavelength: 680 nm. FP values of DMSO controls were used to normalize the data and calculate IC50s of compounds using the Helios Software suite.

Row | SMILES | AC50 [1] | AC50 [2] | AC50 (Human KARS)
1 | NC(=O)c1cc(CNC(=O)N2CCC3(CC2)CC(O)c2cc(F)ccc2N3)ccc1F (racemic) [Example 160, N-(3-carbamoyl-4-fluorobenzyl)-6′-fluoro-4′-hydroxy-3′,4′-dihydro-1′H-spiro[piperidine-4,2′-quinoline]-1-carboxamide] | 0.4 nM | 1 nM | 47.2 nM
2 | Nc1cc(CNC(=O)N2CCC3(CC2)CC(O)c2cc(F)ccc2N3)ccc1F (racemic) [Example 158, N-(3-amino-4-fluorobenzyl)-6′-fluoro-4′-hydroxy-3′,4′-dihydro-1′H-spiro[piperidine-4,2′-quinoline]-1-carboxamide] | 33 nM | 6 nM | 42.1 nM
3 | O=C(NCc1ccc(F)cc1)N1CCC2(CC1)C[C@H](O)c1cc(F)ccc1N2 (single isomer, unassigned) [Example 153] | 2260 nM | 2500 nM | > 10000 nM
4 | O=C(NCc1ccc(F)c(CO)c1)N1CCC2(CC1)CC(O)c1cc(F)ccc1N2 (racemic) [Example 159, 6′-fluoro-N-(4-fluoro-3-(hydroxymethyl)benzyl)-4′-hydroxy-3′,4′-dihydro-1′H-spiro[piperidine-4,2′-quinoline]-1-carboxamide] | 53 nM | 67 nM | 45.9 nM
5 | CN1c2ccc(F)cc2C(O)CC12CCN(C(=O)NCc1ccc(F)c(CC(N)=O)c1)CC2 (racemic) [Example 161, N-(3-(2-amino-2-oxoethyl)-4-fluorobenzyl)-6′-fluoro-4′-hydroxy-1′-methyl-3′,4′-dihydro-1′H-spiro[piperidine-4,2′-quinoline]-1-carboxamide] | 278 nM | 91 nM | 71.8 nM
6 | CN1c2ccc(F)cc2C(O)CC12CCN(C(=O)NCc1ccc(F)c([C@@H](N)C(F)(F)F)c1)CC2 (mixture of isomers) [Example 167, N-(3-((R)-1-amino-2,2,2-trifluoroethyl)-4-fluorobenzyl)-6′-fluoro-4′-hydroxy-1′-methyl-3′,4′-dihydro-1′H-spiro[piperidine-4,2′-quinoline]-1-carboxamide] | 345 nM | 100 nM | 918 nM
7 | CN1c2ccc(F)cc2C(O)CC12CCN(C(=O)NCc1ccc(F)c(OCCO)c1)CC2 (racemic) [Example 163] | 76 nM | 11 nM | 98.4 nM
8 | CN1c2ccc(F)cc2C(=O)CC12CCN(C(=O)NCc1ccc(F)cc1)CC2 [Example 9, 6′-fluoro-N-(4-fluorobenzyl)-1′-methyl-4′-oxo-3′,4′-dihydro-1′H-spiro[piperidine-4,2′-quinoline]-1-carboxamide] | 17 nM | > 10000 nM | > 10000 nM
9 | NC(=O)c1cc(CNC(=O)N2CCC3(CC2)CC(O)c2cc(F)cc(F)c2N3)ccc1F (racemic) [Example 157, N-(3-carbamoyl-4-fluorobenzyl)-6′,8′-difluoro-4′-hydroxy-3′,4′-dihydro-1′H-spiro[piperidine-4,2′-quinoline]-1-carboxamide] | 0.1 nM | 2 nM | 34.1 nM
10 | CN1c2ccc(F)cc2C(O)CC12CCN(C(=O)NCc1cc(NCCO)c(F)cc1F)CC2 (racemic) [Example 156, N-(2,4-difluoro-5-((2-hydroxyethyl)amino)benzyl)-6′-fluoro-4′-hydroxy-1′-methyl-3′,4′-dihydro-1′H-spiro[piperidine-4,2′-quinoline]-1-carboxamide] | 49 nM | 80 nM | 23.5 nM
11 | CS(=O)(=O)Nc1cc(CNC(=O)N2CCC3(CC2)CC(O)c2cc(F)ccc2N3)ccc1F (racemic) [Example 164, 6′-fluoro-N-(4-fluoro-3-(methylsulfonamido)benzyl)-4′-hydroxy-3′,4′-dihydro-1′H-spiro[piperidine-4,2′-quinoline]-1-carboxamide] | 253 nM | 234 nM | 106 nM
